Assay results published in the NIST ThermoML archive (doi:10.1016/j.jct.2009.06.020).
Numbers after ± are expanded uncertainties.

Legend:
[1] = 101.33 kPa, Liquid; for speed of sound: Single path-length method; for mass density: Vibrating tube method; for viscosity: Capillary tube (Ostwald / Ubbelohde) method
[2] = isobaric coefficient of expansion; details: 298.15 K; 101.33 kPa; Liquid; Curve Fitting Density Data
[3] = refractive index (Na D-line) (dimensionless); details: 101.33 kPa, Liquid, Standard Abbe refractometry

In the case of `CCCCCCCCCCCCCC[P+](CCCCCC)(CCCCCC)CCCCCC.N#C[N-]C#N` [tetradecyl(trihexyl)phosphonium dicyanamide], the speed of sound ([1]; 278.15 K) is reported as 1599 ± 3 m/s, the mass density ([1]; 278.15 K) is reported as 910.72 ± 3.6 kg/m3 and the speed of sound ([1]; 283.15 K) is reported as 1579 ± 3 m/s. The mass density ([1]; 283.15 K) was 907.58 ± 3.6 kg/m3, the speed of sound ([1]; 288.15 K) was 1561 ± 3 m/s and the mass density ([1]; 288.15 K) was 904.66 ± 3.6 kg/m3. It also gave a viscosity ([1]; 293.15 K) of 562.45 ± 31 mPa·s, a speed of sound ([1]; 293.15 K) of 1542 ± 3 m/s and a mass density ([1]; 293.15 K) of 901.76 ± 3.6 kg/m3. For the same compound, the viscosity ([1]; 298.15 K) was 418.33 ± 22 mPa·s, the speed of sound ([1]; 298.15 K) was 1526 ± 3 m/s and the mass density ([1]; 298.15 K) was 898.86 ± 3.6 kg/m3. The viscosity ([1]; 303.15 K) was 312.69 ± 16 mPa·s, the speed of sound ([1]; 303.15 K) was 1509 ± 3 m/s and the mass density ([1]; 303.15 K) was 895.98 ± 3.6 kg/m3. The viscosity ([1]; 308.15 K) was 239.97 ± 11 mPa·s, the speed of sound ([1]; 308.15 K) was 1493 ± 3 m/s and the mass density ([1]; 308.15 K) was 893.09 ± 3.6 kg/m3. It also gave a viscosity ([1]; 313.15 K) of 186.79 ± 8.5 mPa·s, a speed of sound ([1]; 313.15 K) of 1477 ± 3 m/s and a mass density ([1]; 313.15 K) of 890.26 ± 3.6 kg/m3. The viscosity ([1]; 318.15 K) was 145.95 ± 6.4 mPa·s, the speed of sound ([1]; 318.15 K) was 1462 ± 3 m/s and the mass density ([1]; 318.15 K) was 887.46 ± 3.6 kg/m3. It also gave a viscosity ([1]; 323.15 K) of 116.18 ± 5 mPa·s, a speed of sound ([1]; 323.15 K) of 1447 ± 3 m/s and a mass density ([1]; 323.15 K) of 884.65 ± 3.5 kg/m3. It also gave a viscosity ([1]; 328.15 K) of 93.8 ± 3.9 mPa·s, a speed of sound ([1]; 328.15 K) of 1432 ± 3 m/s and a mass density ([1]; 328.15 K) of 881.83 ± 3.5 kg/m3. It also gave a viscosity ([1]; 333.15 K) of 76.14 ± 3.1 mPa·s, a speed of sound ([1]; 333.15 K) of 1418 ± 3 m/s and a mass density ([1]; 333.15 K) of 879.03 ± 3.5 kg/m3. It also gave a viscosity ([1]; 338.15 K) of 62.63 ± 2.6 mPa·s, a speed of sound ([1]; 338.15 K) of 1404 ± 3 m/s and a mass density ([1]; 338.15 K) of 876.22 ± 3.5 kg/m3. For the same compound, the viscosity ([1]; 343.15 K) was 51.99 ± 2.1 mPa·s, the speed of sound ([1]; 343.15 K) was 1390 ± 3 m/s and the mass density ([1]; 343.15 K) was 873.42 ± 3.5 kg/m3. The “isobaric coefficient of expansion” value [2] was 0.000642 1/K, the refractive index ([3]; 283.15 K) was 1.48826 ± 0.00037 and the refractive index ([3]; 288.15 K) was 1.48667 ± 0.00037. It also gave a refractive index ([3]; 293.15 K) of 1.48502 ± 0.00037, a refractive index ([3]; 298.15 K) of 1.48337 ± 0.00037 and a refractive index ([3]; 303.15 K) of 1.48174 ± 0.00037. The refractive index ([3]; 308.15 K) was 1.48008 ± 0.00037, the refractive index ([3]; 313.15 K) was 1.47843 ± 0.00037 and the refractive index ([3]; 318.15 K) was 1.47679 ± 0.00037. It also gave a refractive index ([3]; 323.15 K) of 1.47516 ± 0.00037, a refractive index ([3]; 328.15 K) of 1.47352 ± 0.00037 and a refractive index ([3]; 333.15 K) of 1.47189 ± 0.00037. It also gave a refractive index ([3]; 338.15 K) of 1.47024 ± 0.00037 and a refractive index ([3]; 343.15 K) of 1.46848 ± 0.00037.
